Experimental data from US4075206A, “Substituted pyrroloquinoxalinones and diones” (Eli Lilly and Company, priority 1977, dated 1978).

Legend:
[1] = test system: collagen-induced platelet aggregation; assay: Platelet aggregation test: collagen-induced platelet aggregation after oral dosing (method of Hermann et al.); format: in vivo, guinea pigs; conditions: Cavia porcellus, 1 h, 2 doses, time zero and 2 hours later, blood 60 minutes after last dose, active = about 50% inhibition of collagen-induced aggregation, N.A. = not active at 100 mg/kg × 2, read-out: P.A. (lowest active dose in the platelet aggregation test)
Method: Certain of the compounds of this invention are also platelet aggregation inhibitors and the results of testing for this activity are also included in Table I. The platelet aggregation test used involves the effect of a drug upon collagen-induced platelet aggregation using the method of Hermann et al., Proc. Soc. Exp. Biol. Med. 136, 548 (1972). According to this procedure, 300- 400 g. guinea pigs are used and the compound is administered by the oral route in 2 doses, at time zero and again 2 hours later, at a series of graded dose levels to groups of 4 pigs each. One group is maintained as a control group. Blood is removed by heart puncture 60 minutes after the last dose, and a platelet-rich plasma prepared therefrom. A stock collagen solution is prepared by solubilizing bovine Achilles tendon with acetic acid. The stock solution contains 0.25 percent collagen, has a pH of 2.8 and is kept under refrigeration. Prior to use, 0.4 ml. of 1M aqueous sodium hydroxide is added to a 1 ml. aliquot of the stock solution, followed by further dilutions with saline (1:2 1:4, 1:8, 1:16, 1:32, etc.) A standard collagen challenge was used, 0.05 ml. of 1:45 dilution, to induce platelet aggregation and the aggregation response of the drugged guinea pigs was compared to that of the controls to determine inhibition of aggregation. The lowest active dose in mg./kg. × 2 is then determined, "active" being defined as giving about 50% inhibition of collagen-induced aggregation. (Activity was determined by computor printout with significance at the 95 percent confidence level being attained at about the 50 percent inhibition level). In Table 1, column 1 gives the name of the compound, column 2, the ED50 calculated as set forth above and column 3, the percent inhibition at a 50 mg/kg dose level where an ED50 was not determined and column 4, the lowest active dose in the platelet aggregation test. N. A. indicates "not active" at 100 mg/kg × 2 in this latter test.

[2] = test system: erythema produced by an ultra-violet light source on guinea pig skin; assay: Anti-inflammatory: block of UV-light-induced erythema on guinea pig skin (method of Windner et al.); format: in vivo, albino guinea pigs; conditions: oral; for ED50: Cavia porcellus, dose producing 50 percent inhibition of the erythemic response, groups of four guinea pigs; for Inhibition at 50 mg/kg dose: percent inhibition of erythema at 50 mg/kg where an ED50 was not determined
Method: The compounds of this invention are anti-inflammatory and anti-thrombotic agents. […] Int. Pharmacodyn, 116, 261 (1958). In this procedure, albino quinea pigs weighing 225- 300 gms. are shaved on the back and chemically depilated 18 to 20 hours before initiation of the test procedures. Animals in groups of 4 are given predetermined dosages of the drug under test with one group being maintained as a control group. The drug is administered by the oral route as a suspension in 1 percent aqueous sodium carboxymethylcellulose. The control animals receive only the suspending median. After having being given the drug or suspension medium only, each group of animals is exposed to a high-intensity ultra-violet light for a predetermined period of time, the ultra-violet light being placed in contact with the depilated skin area on the animals' back. A gummed paper reinforcement is affixed to the lamp lens to provide an unexposed area of contrast for grading the light-produced erythema.
Beginning one hour after exposure and thereafter at half-hour intervals for another 1.5 hours, a trained observer grades erythema using an arbitraty scoring system based upon the degree of contrast and redness formed. […] The following scoring system is used: […]
______________________________________
Score Appearance of Exposed Area
0 No redness and no contrast
1 Slight redness with a faint
2 Slight to moderate redness
with a distinct outline
3 Marked redness with a distinct
Total scores from each treatment group of four guinea pigs are compared to the control treatment, and the percent inhibition calculated as follows: [formula]
If desired, a dose-response graph can be obtained by plotting dose versus percent inhibition, each point representing the average of one treatment group of four guinea pigs. The dose (ED50) in mg/kg cm.^2) which produced a 50 percent inhibition of the erythemic response for the particular compound tested can then be obtained, either directly or by extrapolation. Table I below summarizes the results obtained from testing representative compounds of the invention by the foregoing method.

Work on `CCN1C(=O)CN2C(=O)C(c3ccccc3)c3cccc1c32` (centres unmarked) [1-Ethyl-6-phenyl-1H-pyrrolo[1,2,3-de]quinoxalin-2,5(3H,6H)-dione] yielded a minimal effective dose [1] of 100 mg/kg and an ED50 [2] of 33 mg/kg.
In the case of `CN1C(=O)CN2C(=O)C(c3ccccc3)c3cccc1c32` (centres unmarked) [1-Methyl-6-phenyl-1H-pyrrolo 1,2,3-de]quinoxalin-2,5(3H,6H)-dione], the minimal effective dose [1] was 3.12 mg/kg and the ED50 [2] was 4.4 mg/kg.
`CCCN1C(=O)CN2C(=O)C(c3ccccc3)c3cccc1c32` (centres unmarked) [1-n-Propyl-6-phenyl-1H-pyrrolo[1,2,3-de]quinoxalin-2,5(3H,6H)-dione] showed an ED50 [2] of 47.5 mg/kg.
Work on `O=C1C(c2ccccc2)c2cccc3c2N1CCN3` (centres unmarked) [2,3-dihydro-6-phenyl-1H-pyrrolo[1,2,3-de]quinoxalin-5(6H)-one] yielded a minimal effective dose [1] of 100 mg/kg and an ED50 [2] of 7.9 mg/kg.
`O=C1CCN2C(=O)C(c3ccccc3)c3cccc(c32)N1` (centres unmarked) [3,4-DIHYDRO-7-PHENYL-1H-PYRROLO[ 1,2,3-ef]-BENZO-[ f]DIAZEPINE-2,6(1H,7H)-DIONE] gave a minimal effective dose [1] of 50 mg/kg and an ED50 [2] of 12 mg/kg.
Work on `O=C1CN2C(=O)C(c3ccccc3)(c3ccccc3)c3cccc(c32)N1` [6,6-diphenyl-1H-pyrrolo-[1,2,3-de]quinoxalin-2,5 (3H,6H)-dione] yielded an ED50 [2] of 36 mg/kg.
For `O=C1CN2C(=O)C(c3ccc(Cl)cc3)c3cccc(c32)N1` (centres unmarked) [6-(4-chlorophenyl)-1H-pyrrolo[1,2,3-de]-quinoxalin-2,5(3H,6H)-dione], the “Inhibition at 50 mg/kg dose” value [2] was 48%.
`O=C1CN2C(=O)C(c3ccc(F)cc3)c3cccc(c32)N1` (centres unmarked) [6-(p-fluoro)phenyl-1H-pyrrolo[1,2,3-de]quinoxalin-2,5 (3H,6H)-dione] showed a minimal effective dose [1] of 12.5 mg/kg and an ED50 [2] of 7.7 mg/kg.
With `O=C1CN2C(=O)C(c3ccccc3)c3c2c(cc2ccccc32)N1` (centres unmarked) [6-phenyl-1H-benzo[g]pyrrolo[1,2,3-de]quinoxalin-2,5(3H,6H)-dione] the “Inhibition at 50 mg/kg dose” value [2] was 42%.
Work on `O=C1CN2C(=O)C(c3ccccc3)c3cccc(c32)N1` (centres unmarked) [6-phenyl-1H-pyrrolo[1,2,3-de]quinoxalin-2,5(3H,6H)-dione] yielded a minimal effective dose [1] of 1.56 mg/kg and an ED50 [2] of 0.9 mg/kg.
Compound `CCC1C(=O)Nc2cccc3c2N1C(=O)C3c1ccccc1` (centres unmarked) [6-phenyl-3-ethyl-1H-pyrrolo[1,2,3-de]quinoxalin-2,5(3H,6H)-dione] has a minimal effective dose [1] of 50 mg/kg and an ED50 [2] of 1 mg/kg.
In the case of `CC1C(=O)Nc2cccc3c2N1C(=O)C3c1ccccc1` (centres unmarked) [6-phenyl-3-methyl-1H-pyrrolo 1,2,3-de]quinoxalin-2,5(3H,6H)-dione], the minimal effective dose [1] was 1.56 mg/kg and the ED50 [2] was 2.5 mg/kg.
In the case of `O=C1CN2C(=O)C(c3ccccc3)c3cc(Cl)cc(c32)N1` (centres unmarked) [6-phenyl-8-chloro-1H-pyrrolo[1,2,3-de]quinoxalin-2,5(3H,6H)-dione], the minimal effective dose [1] was 100 mg/kg and the “Inhibition at 50 mg/kg dose” value [2] was 50%.
Work on `COc1cc2c3c(c1)C(c1ccccc1)C(=O)N3CC(=O)N2` (centres unmarked) [6-phenyl-8-methoxy-1H-pyrrolo[1,2,3-de]quinoxalin-2,5(3H,6H)-dione] yielded a minimal effective dose [1] of 6.25 mg/kg and an ED50 [2] of 45 mg/kg.
In the case of `Cc1cc2c3c(c1)C(c1ccccc1)C(=O)N3CC(=O)N2` (centres unmarked) [6-phenyl-8-methyl-1H-pyrrolo[1,2,3-de]quinoxalin-2,5(3H,6H)-dione], the minimal effective dose [1] was 3.12 mg/kg and the “Inhibition at 50 mg/kg dose” value [2] was 51%.
